Data from PMC4051630, “A Comparison of Protein Kinases Inhibitor Screening Methods Using Both Enzymatic Activity and Binding Affinity Determination” (PLoS ONE, 2014).

What was measured:
Test in all cases: Differential Scanning Fluorimetry (DSF) Tm shift
Format in all cases: binding
FES Catalytic Domain = biological target: T1, FES Catalytic Domain (Homo sapiens, UniProt P07332); conditions: 2 µM protein, 10 µM inhibitor, average of 3 experiments, each in duplicate
T1 construct: For all of them, we expressed and purified the catalytic domain separately; His-tag; made in house; host or cells: Escherichia coli
T1 sequence (P07332 561-822 limits assumed): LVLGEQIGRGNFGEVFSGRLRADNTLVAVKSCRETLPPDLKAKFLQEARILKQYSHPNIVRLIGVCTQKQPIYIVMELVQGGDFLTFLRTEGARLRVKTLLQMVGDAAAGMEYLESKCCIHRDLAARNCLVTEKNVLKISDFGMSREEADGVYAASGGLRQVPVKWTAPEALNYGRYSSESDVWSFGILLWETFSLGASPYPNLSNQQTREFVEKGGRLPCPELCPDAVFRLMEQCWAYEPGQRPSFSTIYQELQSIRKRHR

SRC Catalytic Domain = SRC Catalytic Domain (Homo sapiens, UniProt P12931); design: For all of them, we expressed and purified the catalytic domain separately; His-tag; made in house; host or cells: Escherichia coli; conditions: 2 µM protein, 10 µM inhibitor, average of 3 experiments, each in duplicate
Sequence of SRC Catalytic Domain (P12931 270-523 limits assumed): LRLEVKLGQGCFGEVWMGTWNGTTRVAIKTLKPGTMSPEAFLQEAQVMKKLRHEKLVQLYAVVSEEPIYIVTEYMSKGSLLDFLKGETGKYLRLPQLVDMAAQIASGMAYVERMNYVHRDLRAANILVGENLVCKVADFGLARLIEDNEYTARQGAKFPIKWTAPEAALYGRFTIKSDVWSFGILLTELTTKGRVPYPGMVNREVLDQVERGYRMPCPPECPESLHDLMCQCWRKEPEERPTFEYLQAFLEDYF

CHK2 Catalytic Domain = biological target: T2, CHK2 Catalytic Domain (Homo sapiens, UniProt O96017); conditions: 2 µM protein, 10 µM inhibitor, average of 3 experiments, each in duplicate
T2 construct: For all of them, we expressed and purified the catalytic domain separately; His-tag; made in house; host or cells: Escherichia coli
T2 sequence (O96017 220-486 limits assumed): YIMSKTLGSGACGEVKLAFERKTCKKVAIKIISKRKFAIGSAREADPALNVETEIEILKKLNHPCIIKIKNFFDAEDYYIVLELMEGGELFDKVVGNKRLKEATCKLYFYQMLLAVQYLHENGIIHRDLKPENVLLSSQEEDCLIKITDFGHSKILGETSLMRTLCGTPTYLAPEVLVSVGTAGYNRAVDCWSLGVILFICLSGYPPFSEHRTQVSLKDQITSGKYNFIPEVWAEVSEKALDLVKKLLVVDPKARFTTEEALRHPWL

DMPK Catalytic Domain = biological target: T3, DMPK Catalytic Domain (Homo sapiens, UniProt Q09013); conditions: 2 µM protein, 10 µM inhibitor, average of 3 experiments, each in duplicate
T3 construct: For all of them, we expressed and purified the catalytic domain separately; His-tag; made in house; host or cells: Escherichia coli
T3 sequence (Q09013 71-339 limits assumed): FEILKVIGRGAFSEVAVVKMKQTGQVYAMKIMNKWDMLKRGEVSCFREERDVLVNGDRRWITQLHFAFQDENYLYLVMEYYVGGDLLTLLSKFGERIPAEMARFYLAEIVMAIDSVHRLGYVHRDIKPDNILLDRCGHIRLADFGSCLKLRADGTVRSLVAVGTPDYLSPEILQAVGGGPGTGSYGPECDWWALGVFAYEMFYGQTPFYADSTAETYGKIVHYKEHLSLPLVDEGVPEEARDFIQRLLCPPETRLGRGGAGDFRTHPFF

FES Catalytic Domain+SH2 = biological target: T4, FES Catalytic Domain+SH2 (Homo sapiens, UniProt P07332); conditions: 2 µM protein, 10 µM inhibitor, average of 3 experiments, each in duplicate
T4 construct: for 8, we also made a longer version containing one or more additional domains; His-tag; made in house; host or cells: Escherichia coli
T4 sequence (P07332 448-822 limits assumed): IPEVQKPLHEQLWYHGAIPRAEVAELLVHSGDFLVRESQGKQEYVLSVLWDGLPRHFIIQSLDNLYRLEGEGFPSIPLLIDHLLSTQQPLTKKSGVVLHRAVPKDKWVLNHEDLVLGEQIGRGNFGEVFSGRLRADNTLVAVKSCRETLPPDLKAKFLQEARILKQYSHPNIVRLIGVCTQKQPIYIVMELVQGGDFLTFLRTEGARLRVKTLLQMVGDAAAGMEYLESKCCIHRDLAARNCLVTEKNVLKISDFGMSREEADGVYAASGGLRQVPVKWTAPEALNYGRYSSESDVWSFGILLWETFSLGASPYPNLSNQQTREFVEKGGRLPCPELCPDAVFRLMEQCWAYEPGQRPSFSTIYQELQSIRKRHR

[1] = biological target: T5, STK3 Catalytic domain+SARAH (Homo sapiens, UniProt Q13188); conditions: 2 µM protein, 10 µM inhibitor, average of 3 experiments, each in duplicate
T5 construct: for 8, we also made a longer version containing one or more additional domains; His-tag; made in house; host or cells: Escherichia coli
T5 sequence (Q13188 1-491): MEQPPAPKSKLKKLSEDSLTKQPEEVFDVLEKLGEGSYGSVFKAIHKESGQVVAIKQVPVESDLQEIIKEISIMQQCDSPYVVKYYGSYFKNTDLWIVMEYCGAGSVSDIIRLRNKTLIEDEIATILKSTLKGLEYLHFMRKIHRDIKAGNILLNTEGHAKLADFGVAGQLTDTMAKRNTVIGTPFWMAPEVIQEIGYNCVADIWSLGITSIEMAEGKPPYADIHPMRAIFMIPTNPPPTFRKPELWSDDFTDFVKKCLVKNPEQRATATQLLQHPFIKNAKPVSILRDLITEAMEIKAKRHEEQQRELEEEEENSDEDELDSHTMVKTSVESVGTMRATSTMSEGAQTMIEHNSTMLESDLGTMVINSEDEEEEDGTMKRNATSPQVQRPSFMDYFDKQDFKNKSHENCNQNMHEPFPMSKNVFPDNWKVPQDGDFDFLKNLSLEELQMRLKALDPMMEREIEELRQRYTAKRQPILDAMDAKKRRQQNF

FAK2 Catalytic Domain = biological target: T6, FAK2 Catalytic Domain (Homo sapiens, UniProt Q14289); conditions: 2 µM protein, 10 µM inhibitor, average of 3 experiments, each in duplicate
T6 construct: For all of them, we expressed and purified the catalytic domain separately; His-tag; made in house; host or cells: Escherichia coli
T6 sequence (Q14289 425-683 limits assumed): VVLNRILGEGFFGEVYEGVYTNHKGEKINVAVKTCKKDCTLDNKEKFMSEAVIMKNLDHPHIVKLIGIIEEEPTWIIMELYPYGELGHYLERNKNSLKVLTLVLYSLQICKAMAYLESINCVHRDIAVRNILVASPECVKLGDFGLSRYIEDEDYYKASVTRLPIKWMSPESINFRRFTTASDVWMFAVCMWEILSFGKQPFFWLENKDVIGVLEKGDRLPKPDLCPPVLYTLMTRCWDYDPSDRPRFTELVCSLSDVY

[2] = biological target: SRC Catalytic Domain+SH2+SH3 (Homo sapiens, UniProt P12931); conditions: 2 µM protein, 10 µM inhibitor, average of 3 experiments, each in duplicate
Sequence of SRC Catalytic Domain+SH2+SH3 (P12931 84-523 limits assumed): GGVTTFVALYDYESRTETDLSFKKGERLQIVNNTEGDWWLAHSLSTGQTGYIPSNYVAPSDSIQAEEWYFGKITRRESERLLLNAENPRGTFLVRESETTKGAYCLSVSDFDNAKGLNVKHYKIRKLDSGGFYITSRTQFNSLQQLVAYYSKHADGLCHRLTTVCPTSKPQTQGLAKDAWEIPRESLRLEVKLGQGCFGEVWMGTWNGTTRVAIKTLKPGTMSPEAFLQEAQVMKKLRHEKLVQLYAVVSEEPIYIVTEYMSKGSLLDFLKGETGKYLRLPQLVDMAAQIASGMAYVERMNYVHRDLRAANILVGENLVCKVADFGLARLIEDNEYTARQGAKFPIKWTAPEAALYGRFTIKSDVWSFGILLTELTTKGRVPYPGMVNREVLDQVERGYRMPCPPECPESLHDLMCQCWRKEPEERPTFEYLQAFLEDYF

PAK4 Catalytic Domain = biological target: T7, PAK4 Catalytic Domain (Homo sapiens, UniProt O96013); conditions: 2 µM protein, 10 µM inhibitor, average of 3 experiments, each in duplicate
T7 construct: For all of them, we expressed and purified the catalytic domain separately; His-tag; made in house; host or cells: Escherichia coli
T7 sequence (O96013 321-572 limits assumed): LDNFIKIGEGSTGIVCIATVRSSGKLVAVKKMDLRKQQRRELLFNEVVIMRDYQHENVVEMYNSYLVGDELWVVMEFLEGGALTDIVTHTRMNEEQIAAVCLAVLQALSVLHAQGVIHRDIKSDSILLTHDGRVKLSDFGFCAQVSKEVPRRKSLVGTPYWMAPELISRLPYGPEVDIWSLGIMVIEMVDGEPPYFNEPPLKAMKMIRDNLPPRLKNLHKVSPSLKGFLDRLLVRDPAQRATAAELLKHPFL

AKT3 Catalytic Domain = biological target: T8, AKT3 Catalytic Domain (Homo sapiens, UniProt Q9Y243); conditions: 2 µM protein, 10 µM inhibitor, average of 3 experiments, each in duplicate
T8 construct: AKT3 (Q9Y243); CD; His-tag; made in house; host or cells: Escherichia coli
T8 sequence (Q9Y243 122-479): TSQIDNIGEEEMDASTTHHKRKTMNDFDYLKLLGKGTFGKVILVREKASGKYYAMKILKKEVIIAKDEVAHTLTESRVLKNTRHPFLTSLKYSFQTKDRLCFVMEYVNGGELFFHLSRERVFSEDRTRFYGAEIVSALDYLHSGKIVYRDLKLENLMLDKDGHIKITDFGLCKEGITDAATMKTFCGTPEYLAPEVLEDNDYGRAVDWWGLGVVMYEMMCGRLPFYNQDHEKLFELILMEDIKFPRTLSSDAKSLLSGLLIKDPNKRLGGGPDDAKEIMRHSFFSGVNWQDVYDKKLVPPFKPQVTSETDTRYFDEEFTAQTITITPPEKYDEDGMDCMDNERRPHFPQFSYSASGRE

CDK2 + Cyclin E = biological target: T9, CDK2 + Cyclin E (Homo sapiens, UniProt P24941); conditions: CDK2 + Cyclin E; 2 µM protein, 10 µM inhibitor; average of 3 experiments, each in duplicate
T9 construct: CDK2 (P24941); 1–299; His-tag; made in house; host or cells: Escherichia coli

PAK7 Catalytic Domain = biological target: T10, PAK7 Catalytic Domain (Homo sapiens, UniProt Q9P286); conditions: 2 µM protein, 10 µM inhibitor, average of 3 experiments, each in duplicate
T10 construct: For all of them, we expressed and purified the catalytic domain separately; His-tag; made in house; host or cells: Escherichia coli
T10 sequence (Q9P286 449-700 limits assumed): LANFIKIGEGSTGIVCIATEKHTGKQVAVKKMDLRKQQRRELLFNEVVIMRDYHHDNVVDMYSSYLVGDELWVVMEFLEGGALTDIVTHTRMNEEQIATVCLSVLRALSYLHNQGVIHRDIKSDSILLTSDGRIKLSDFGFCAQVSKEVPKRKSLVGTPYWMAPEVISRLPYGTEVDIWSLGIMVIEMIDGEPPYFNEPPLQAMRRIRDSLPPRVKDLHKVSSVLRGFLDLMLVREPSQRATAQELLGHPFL

CDK2 + Cyclin A = biological target: T11, CDK2 + Cyclin A (Homo sapiens, UniProt P24941); conditions: CDK2 + Cyclin A; 2 µM protein, 10 µM inhibitor; average of 3 experiments, each in duplicate
T11 construct: CDK2 (P24941); 1–299; His-tag; made in house; host or cells: Escherichia coli

STK3 Catalytic Domain = biological target: T12, STK3 Catalytic Domain (Homo sapiens, UniProt Q13188); conditions: 2 µM protein, 10 µM inhibitor, average of 3 experiments, each in duplicate
T12 construct: For all of them, we expressed and purified the catalytic domain separately; His-tag; made in house; host or cells: Escherichia coli
T12 sequence (Q13188 27-278 limits assumed): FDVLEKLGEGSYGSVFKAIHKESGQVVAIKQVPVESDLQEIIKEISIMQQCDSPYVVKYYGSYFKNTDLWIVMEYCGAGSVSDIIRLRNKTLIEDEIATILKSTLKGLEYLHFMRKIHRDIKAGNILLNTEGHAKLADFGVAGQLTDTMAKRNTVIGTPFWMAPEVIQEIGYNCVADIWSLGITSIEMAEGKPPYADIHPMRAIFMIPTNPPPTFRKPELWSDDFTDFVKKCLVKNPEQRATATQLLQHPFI

[3] = biological target: T13, PAK4 Catalytic Domain+PBD (Homo sapiens, UniProt O96013); conditions: 2 µM protein, 10 µM inhibitor, average of 3 experiments, each in duplicate
T13 construct: for 8, we also made a longer version containing one or more additional domains; His-tag; made in house; host or cells: Escherichia coli
T13 sequence (O96013 whole entry, the tested form may be a part): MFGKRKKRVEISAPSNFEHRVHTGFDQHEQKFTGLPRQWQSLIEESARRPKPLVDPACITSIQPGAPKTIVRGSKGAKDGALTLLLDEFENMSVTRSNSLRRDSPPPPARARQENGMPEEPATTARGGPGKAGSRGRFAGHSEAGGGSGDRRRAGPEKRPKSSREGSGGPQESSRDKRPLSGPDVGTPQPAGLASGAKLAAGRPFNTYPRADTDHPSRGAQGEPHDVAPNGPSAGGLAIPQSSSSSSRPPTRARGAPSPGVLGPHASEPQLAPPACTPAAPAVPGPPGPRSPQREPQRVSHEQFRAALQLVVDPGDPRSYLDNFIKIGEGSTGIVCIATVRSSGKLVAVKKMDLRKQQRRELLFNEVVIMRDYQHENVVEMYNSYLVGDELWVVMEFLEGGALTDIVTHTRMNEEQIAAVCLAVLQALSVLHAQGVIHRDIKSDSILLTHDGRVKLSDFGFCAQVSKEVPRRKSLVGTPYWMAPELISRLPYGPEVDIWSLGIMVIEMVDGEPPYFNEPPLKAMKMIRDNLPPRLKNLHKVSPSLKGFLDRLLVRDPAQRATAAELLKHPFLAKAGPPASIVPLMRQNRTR

| Compound | Melting temperature (Tm) shift (FES Catalytic Domain) | Melting temperature (Tm) shift (SRC Catalytic Domain) | Melting temperature (Tm) shift (CHK2 Catalytic Domain) | Melting temperature (Tm) shift (DMPK Catalytic Domain) | Melting temperature (Tm) shift (FES Catalytic Domain+SH2) | Melting temperature (Tm) shift [1] | Melting temperature (Tm) shift (FAK2 Catalytic Domain) | Melting temperature (Tm) shift [2] | Melting temperature (Tm) shift (PAK4 Catalytic Domain) | Melting temperature (Tm) shift (AKT3 Catalytic Domain) | Melting temperature (Tm) shift (CDK2 + Cyclin E) | Melting temperature (Tm) shift (PAK7 Catalytic Domain) | Melting temperature (Tm) shift (CDK2 + Cyclin A) | Melting temperature (Tm) shift (STK3 Catalytic Domain) | Melting temperature (Tm) shift [3] |
| --- | --- | --- | --- | --- | --- | --- | --- | --- | --- | --- | --- | --- | --- | --- | --- |
| CCn1cnc2c(Nc3cccc(Cl)c3)nc(N[C@H]3CCCC[C@H]3N)nc21 [Cdk1 Inhibitor, CGP74514A] | 1.6 degrees Celcius | 1.2 degrees Celcius | 1.8 degrees Celcius | 1.4 degrees Celcius | 0.7 degrees Celcius | 1.2 degrees Celcius | 1.9 degrees Celcius | 1.3 degrees Celcius | 5.6 degrees Celcius | 0.0 degrees Celcius | 3.7 degrees Celcius | 5.4 degrees Celcius | 4.4 degrees Celcius | 1.3 degrees Celcius | 8.1 degrees Celcius |
| O=C1Cc2c([nH]c3ccc(Br)cc23)-c2ccccc2N1 [Kenpaullone] | 0.4 degrees Celcius | 0.4 degrees Celcius | 3.4 degrees Celcius | 1.9 degrees Celcius | 0.0 degrees Celcius | 1.5 degrees Celcius | 0.3 degrees Celcius | 0.2 degrees Celcius | 1.4 degrees Celcius | 0.0 degrees Celcius | 0.3 degrees Celcius | 0.7 degrees Celcius | 0.4 degrees Celcius | 0.7 degrees Celcius | 3.6 degrees Celcius |
| O=C(c1ccc(Nc2nccc(-c3cc4ccccc4s3)n2)cc1)N1CCC(N2CCCC2)CC1 [IKK Inhibitor VII] | 3.3 degrees Celcius | 0.6 degrees Celcius | 1.9 degrees Celcius | 1.2 degrees Celcius | 1.4 degrees Celcius | 1.2 degrees Celcius | 1.8 degrees Celcius | 0.5 degrees Celcius | 1.7 degrees Celcius | 0.2 degrees Celcius | 0.5 degrees Celcius | 1.8 degrees Celcius | 0.7 degrees Celcius | 0.7 degrees Celcius | 0.5 degrees Celcius |
| O=C1Nc2ccc3ncsc3c2/C1=C/c1cnc[nH]1 [PKR Inhibitor] | 3.2 degrees Celcius | 0.7 degrees Celcius | 4.0 degrees Celcius | 0.8 degrees Celcius | 0.7 degrees Celcius | 7.0 degrees Celcius | 1.1 degrees Celcius | 0.3 degrees Celcius | 1.9 degrees Celcius | 0.3 degrees Celcius | 4.3 degrees Celcius | 1.9 degrees Celcius | 4.4 degrees Celcius | 4.9 degrees Celcius | 1.8 degrees Celcius |
| CN(C)CCCn1cc(C2=C(c3c[nH]c4ccccc34)C(=O)NC2=O)c2ccccc21 [Bisindolylmaleimide I] | 0.6 degrees Celcius | 0.4 degrees Celcius | 4.6 degrees Celcius | 3.9 degrees Celcius | 0.6 degrees Celcius | 2.9 degrees Celcius | 0.5 degrees Celcius | 0.0 degrees Celcius | 1.0 degrees Celcius | 0.4 degrees Celcius | 0.9 degrees Celcius | 0.6 degrees Celcius | 1.8 degrees Celcius | 1.0 degrees Celcius | 0.6 degrees Celcius |
| CCCCn1c2ccc(O)cc2c2c3c(c(-c4ccccc4Cl)cc21)C(=O)NC3=O [Wee1 Inhibitor II] | 0.0 degrees Celcius | 0.3 degrees Celcius | 0.1 degrees Celcius | 0.6 degrees Celcius | 0.2 degrees Celcius | 1.2 degrees Celcius | 0.9 degrees Celcius | 0.2 degrees Celcius | 0.5 degrees Celcius | 0.1 degrees Celcius | 0.8 degrees Celcius | 0.3 degrees Celcius | 0.1 degrees Celcius |  | 1.0 degrees Celcius |
